Source: patent US11370773B1, “Inhibiting human integrin (alpha-4) (beta-7)” (Morphic Therapeutic, Inc., priority 2019, dated 2022)

target: T1, integrin α4β7 (Homo sapiens, UniProt P13612+P26010); assay: Fluorescence Polarization (FP) assay for α4β7 binding, competition with fluorescein-labeled peptide; details: 6.5 nM integrin α4β7, 3 nM fluorescein-labeled peptide, 2 mM MnCl2; read-out: FP Assay (Example 5) IC50
T1 sequence (P13612 34-977 limits assumed): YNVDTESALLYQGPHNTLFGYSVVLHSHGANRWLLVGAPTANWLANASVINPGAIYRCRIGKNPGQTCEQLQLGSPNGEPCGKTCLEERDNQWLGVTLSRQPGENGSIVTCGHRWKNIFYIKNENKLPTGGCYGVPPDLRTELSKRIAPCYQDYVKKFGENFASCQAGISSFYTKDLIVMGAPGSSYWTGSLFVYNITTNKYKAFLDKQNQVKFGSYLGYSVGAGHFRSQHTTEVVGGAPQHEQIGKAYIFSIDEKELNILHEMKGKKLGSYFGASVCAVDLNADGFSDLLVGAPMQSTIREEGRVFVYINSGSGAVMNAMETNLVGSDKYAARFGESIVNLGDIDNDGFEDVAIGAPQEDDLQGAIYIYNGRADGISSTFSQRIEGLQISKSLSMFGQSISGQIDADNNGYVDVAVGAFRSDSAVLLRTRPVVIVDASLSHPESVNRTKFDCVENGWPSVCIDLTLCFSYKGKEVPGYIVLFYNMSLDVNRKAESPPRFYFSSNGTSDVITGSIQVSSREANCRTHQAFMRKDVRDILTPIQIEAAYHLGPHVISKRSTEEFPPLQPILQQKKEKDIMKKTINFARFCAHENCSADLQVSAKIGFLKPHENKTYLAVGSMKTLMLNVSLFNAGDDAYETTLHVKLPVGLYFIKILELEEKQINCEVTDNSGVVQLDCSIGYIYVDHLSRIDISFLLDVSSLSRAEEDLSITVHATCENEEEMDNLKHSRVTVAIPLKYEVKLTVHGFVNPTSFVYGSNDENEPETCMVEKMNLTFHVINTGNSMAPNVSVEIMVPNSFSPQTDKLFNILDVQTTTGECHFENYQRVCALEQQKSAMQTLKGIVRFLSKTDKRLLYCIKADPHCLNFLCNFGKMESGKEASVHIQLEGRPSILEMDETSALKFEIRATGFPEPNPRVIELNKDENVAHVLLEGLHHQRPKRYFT
T1 sequence (P26010 20-723 limits assumed): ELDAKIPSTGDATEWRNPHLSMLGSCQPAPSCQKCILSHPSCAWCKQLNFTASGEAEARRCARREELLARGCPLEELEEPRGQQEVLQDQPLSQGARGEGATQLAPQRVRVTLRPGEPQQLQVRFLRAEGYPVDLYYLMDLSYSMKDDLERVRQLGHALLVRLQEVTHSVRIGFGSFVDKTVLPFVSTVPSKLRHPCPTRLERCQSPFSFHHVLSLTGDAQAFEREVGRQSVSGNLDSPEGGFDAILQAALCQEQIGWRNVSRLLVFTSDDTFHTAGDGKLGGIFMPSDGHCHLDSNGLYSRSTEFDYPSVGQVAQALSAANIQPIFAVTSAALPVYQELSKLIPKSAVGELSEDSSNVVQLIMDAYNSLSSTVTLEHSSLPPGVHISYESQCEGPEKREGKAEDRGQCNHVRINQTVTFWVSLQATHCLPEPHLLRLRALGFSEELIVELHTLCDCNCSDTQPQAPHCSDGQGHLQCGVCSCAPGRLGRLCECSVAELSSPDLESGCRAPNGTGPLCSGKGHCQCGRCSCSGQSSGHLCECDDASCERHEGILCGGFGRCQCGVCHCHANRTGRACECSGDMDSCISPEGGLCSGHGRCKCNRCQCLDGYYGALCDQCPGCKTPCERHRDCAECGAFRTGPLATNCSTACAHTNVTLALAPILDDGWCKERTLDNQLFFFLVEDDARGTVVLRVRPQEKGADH
Protocol: Three in vitro assays were used to examine the α4β7 mechanistic process used by cells: 1) ligand:receptor affinity, 2) the avidity of those interactions on a cell's surface, and 3) how those interactions fare under an imposing force. In Example 5, a Fluorescence Polarization (FP) assay is used to measure compound activity through binding competition with the fluorescein-labeled peptide. In Example 6, the potency of compounds against α4β7 is measured in the cell-based ligand binding assay (LBA), using RPMI 8866 cells incubated with the compound samples in competition with soluble MAdCAM-1 ligand. In Example 7, activity of compounds is evaluated in a cell adhesion assay that mechanistically tests what occurs in vivo when trafficking cells utilize α4β7 to adhere to MAdCAM-1 expressing HEVs of the gut during the extravasation process. In the cell adhesion assay of Example 7, a MAdCAM1-(Fc) is coated on plastic, and α4β7 expressing cells (RPMI-8866) are allowed to adhere to the coated surface in the presence of the test compounds. Next, the force of washing with buffer is applied to cells thereby testing the strength of that adhesion. Unattached cells are removed and the remaining adherent cells are quantified.
Fluorescence Polarization (FP) assays were used to measure compound activity through binding competition with the fluorescein-labeled peptide […]{Lys(FITC)}. In the assay, 6.5 nM of integrin α4β7 was incubated with the test compound in 2 mM manganese chloride, 0.1 mM calcium chloride, 20 mM HEPES buffer at pH 7.3, 150 mM sodium chloride, 0.01% Triton X-100, 2% DMSO, and 3 nM of the fluorescein-labeled peptide. Running the assays in 384-well plates, the integrin protein was pre-incubated with the test compounds for 15 minutes at 22° C. before the fluorescein-labeled peptide was added. After the fluorescein-labeled peptide was added, the assay was incubated at 22° C. for 1 hour and fluorescence polarization was measured. IC50 values were determined by non-linear regression, four-parameter curve fitting.

Row | Compound | IC50
1 | Cc1ccc(F)c(C)c1-c1cc(C2CC2)c(F)c([C@H](CC(=O)O)NC(=O)[C@H](CC(C)C)n2cc(CCN3CCC3)c(C(F)(F)F)cc2=O)c1F [HH-P2, (3S)-3-(2-(5-(2-(azetidin-1-yl)ethyl)-2-oxo-4-(trifluoromethyl)pyridin-1(2H)-yl)-4-methylpentanamido)-3-(5-cyclopropyl-2,3′,4-trifluoro-2′,6′-dimethyl-[1,1′-biphenyl]-3-yl)propanoic Acid] | ≤ 10 nM
2 | Cc1cc(C2CC2)cc(C)c1-c1cc(C(F)(F)F)c(F)c([C@H](CC(=O)O)NC(=O)[C@H](CC(C)C)n2cc(CCCN(C)C)c(C(F)(F)F)cc2=O)c1F [HU-P2, (3S)-3-(4′-cyclopropyl-2,4-difluoro-2′,6′-dimethyl-5-(trifluoromethyl)-[1,1′-biphenyl]-3-yl)-3-(2-(5-(3-(dimethylamino)propyl)-2-oxo-4-(trifluoromethyl)pyridin-1(2H)-yl)-4-methylpentanamido)propanoic Acid] | ≤ 10 nM
3 | Cc1cc(F)cc(C)c1-c1cc(C(F)(F)F)c(F)c([C@H](CC(=O)O)NC(=O)[C@H](CC(C)C)n2cc(CCCN(C)C)c(C(F)(F)F)cc2=O)c1F [HW-P2, (3S)-3-(2-(5-(3-(dimethylamino)propyl)-2-oxo-4-(trifluoromethyl)pyridin-1(2H)-yl)-4-methylpentanamido)-3-(2,4,4′-trifluoro-2′,6′-dimethyl-5-(trifluoromethyl)-[1,1′-biphenyl]-3-yl)propanoic Acid] | ≤ 10 nM
4 | Cc1cc(C)c(-c2cc(C(F)(F)F)c(F)c([C@H](CC(=O)O)NC(=O)[C@H](CC(C)C)n3cc(CCCN(C)C)c(C(F)(F)F)cc3=O)c2F)c(C)c1 [HZ-P2, (3S)-3-(2,4-difluoro-2′,4′,6′-trimethyl-5-(trifluoromethyl)biphenyl-3-yl)-3-(2-(5-(3-(dimethylamino)propyl)-2-oxo-4-(trifluoromethyl)pyridin-1(2H)-yl)-4-methylpentanamido)propanoic Acid] | ≤ 10 nM
5 | Cc1cc(C)c(-c2cc(C(F)(F)F)c(F)c([C@H](CC(=O)O)NC(=O)[C@H](CC(C)C)n3cc(CCN(C)C)c(C(F)(F)F)cc3=O)c2F)c(C)c1 [IF-P2, (3S)-3-(2,4-difluoro-2′,4′,6′-trimethyl-5-(trifluoromethyl)-[1,1′-biphenyl]-3-yl)-3-(2-(5-(2-(dimethylamino)ethyl)-2-oxo-4-(trifluoromethyl)pyridin-1(2H)-yl)-4-methylpentanamido)propanoic Acid] | ≤ 10 nM
6 | Cc1cc(C)c(-c2cc(C)c(F)c([C@H](CC(=O)O)NC(=O)[C@H](CC(C)C)n3cc(CCCN(C)C)c(C(F)(F)F)cc3=O)c2F)c(C)c1F [IW-P2, (3S)-3-(2-(5-(3-(dimethylamino)propyl)-2-oxo-4-(trifluoromethyl)pyridin-1(2H)-yl)-4-methylpentanamido)-3-(2,3′,4-trifluoro-2′,4′,5,6′-tetramethyl-[1,1′-biphenyl]-3-yl)propanoic Acid] | ≤ 10 nM
7 | Cc1cc(F)c(C)c(C)c1-c1cc(C(F)(F)F)c(F)c([C@H](CC(=O)O)NC(=O)[C@H](CC(C)C)n2cc(CCN3CCC3)c(C(F)(F)F)cc2=O)c1F [KT-P2, (3S)-3-(2-(5-(2-(azetidin-1-yl)ethyl)-2-oxo-4-(trifluoromethyl)pyridin-1(2H)-yl)-4-methylpentanamido)-3-(2,4,4′-trifluoro-2′,3′,6′-trimethyl-5-(trifluoromethyl)-[1,1′-biphenyl]-3-yl)propanoic Acid] | ≤ 10 nM

The next lines start with the values.

Row | IC50 | Compound
8 | ≤ 10 nM | Cc1cc(-c2c(C)ccc(F)c2C)cc([C@H](CC(=O)O)NC(=O)C(CC(C)C)n2cc(CCN3CCC3)c(C(F)(F)F)cc2=O)c1F (single isomer, unassigned) [AF-P2]
9 | ≤ 10 nM | Cc1ccn([C@@H](NC(C)C)C(=O)N[C@@H](CC(=O)O)c2cncc(-c3c(C)cccc3C)c2)c(=O)c1 [Example C-7, reference compound]
10 | 10 to 500 nM | Cc1ccn([C@@H](CC(C)C)C(=O)N[C@H](CC(=O)O)c2cncc(-c3c(C)cccc3C)c2)c(=O)c1 [Example C-28, reference compound]
11 | ≤ 10 nM | Cc1cc(C)c(-c2cc(C3CC3)c(F)c([C@H](CC(=O)O)NC(=O)[C@H](CC(C)C)n3cc(CCN4CCC4)c(C(F)(F)F)cc3=O)c2F)c(C)c1 [HM-P2, (3S)-3-(2-(5-(2-(azetidin-1-yl)ethyl)-2-oxo-4-(trifluoromethyl)pyridin-1(2H)-yl)-4-methylpentanamido)-3-(5-cyclopropyl-2,4-difluoro-2′,4′,6′-trimethylbiphenyl-3-yl)propanoic Acid]
12 | ≤ 10 nM | Cc1cc(-c2c(C)cc(F)cc2C)cc([C@H](CC(=O)O)NC(=O)[C@H](CC(C)C)n2cc(CCN(C)C)cc(C(F)F)c2=O)c1F [I-P2, (3S)-3-(4,4′-difluoro-2′,5,6′-trimethyl-[1,1′-biphenyl]-3-yl)-3-(2-(3-(difluoromethyl)-5-(2-(dimethylamino)ethyl)-2-oxopyridin-1(2H)-yl)-4-methylpentanamido)propanoic Acid]
13 | ≤ 10 nM | Cc1cc(C)c(-c2cc(C(F)(F)F)c(F)c([C@H](CC(=O)O)NC(=O)[C@H](CC(C)C)n3cc(CCN4CCC4)c(C(F)(F)F)cc3=O)c2F)c(C)c1 [IG-P2, (3S)-3-(2-(5-(2-(azetidin-1-yl)ethyl)-2-oxo-4-(trifluoromethyl)pyridin-1(2H)-yl)-4-methylpentanamido)-3-(2,4-difluoro-2′,4′,6′-trimethyl-5-(trifluoromethyl)biphenyl-3-yl)propanoic Acid]
